Article PMC12430443, “Discovery of Novel Benzamide-Based Sigma-1 Receptor Agonists with Enhanced Selectivity and Safety” (Molecules, 2025)

What was measured:
S1R = target: T1, S1R (Homo sapiens, UniProt Q99720); assay: S1R competitive radioligand binding, [3H](+)-pentazocine, Jurkat cell membranes; conditions: for IC50: [3H]-(+)-pentazocine displacement, n = 2; for Ki (S2R)/ Ki (S1R): selectivity ratio S2R/S1R
T1 construct: For the S1R assay, Jurkat cell membranes (10–20 μg protein/tube) were incubated at 37 °C for 2 h; host or cells: Jurkat cell membranes
T1 sequence (Q99720 whole entry): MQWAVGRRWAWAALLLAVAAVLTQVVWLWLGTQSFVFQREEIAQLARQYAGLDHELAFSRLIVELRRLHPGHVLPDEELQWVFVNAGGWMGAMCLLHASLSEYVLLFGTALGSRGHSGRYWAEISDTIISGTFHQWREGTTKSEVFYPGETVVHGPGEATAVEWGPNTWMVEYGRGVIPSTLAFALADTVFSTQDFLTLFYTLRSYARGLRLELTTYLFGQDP
Text: S1R and S2R affinities were classically evaluated through competitive binding assays using radioligands, following the protocol described by Ganapathy et al.. The selective radioligand [^3H] (+)-pentazocine was employed as the classic prototypical ligand, selectively binding to the orthosteric S1R-binding sites. […] Jurkat cell membranes served as the receptor source in both assays. The equilibrium dissociation constants (Ki) for S1R and S2R were derived from the IC50 values of each compound, and selectivity ratios (S2R/S1R) were subsequently calculated (Table 1, Figures S2 and S3).
Binding assays were performed by Eurofins Cerep (Poitiers, France) according to the protocol of Ganapathy. […] For the S2R assay, Jurkat cell membranes (10–20 μg protein/tube) were incubated at room temperature for 1 h in the same buffer with [^3H]-DTG (25 nM) in the presence of (+)-pentazocine (1 μM) to saturate S1R, along with a range of test compound concentrations. Bound radioactivity was quantified by liquid scintillation counting. Nonspecific binding was determined under identical conditions in the presence of 10 μM unlabeled haloperidol. The IC50 values (concentration causing a half-maximal inhibition of control-specific binding) and Hill coefficients (nH) were determined by non-linear regression analysis of the competition curves generated with mean replicate values using Hill equation curve-fitting. This analysis was performed using software developed at Cerep (Hill software) and validated by comparison with data generated by the commercial software SigmaPlot ®4.0 for Windows® (©1997 by SPSS Inc.). Inhibition constants (Ki) were calculated from IC50 values using the method of Cheng and Prusoff.

S1R-BiP complex = target: T2, S1R-BiP complex (Cricetulus griseus, UniProt A0A3L7I3A5); assay: S1R-BiP complex dissociation, co-immunoprecipitation and BiP ELISA in CHO cells; type: cell-based; conditions: for Dissociation of the S1R-BiP complex (in words): 1 and 10 µM, 30 min incubation, CHO cells, n = 6
T2 construct: host or cells: CHO cells
T2 sequence (A0A3L7I3A5 1-223, one chain of several): as the sequence (Q99720 whole entry) above, with A4S, V5L, A12I, L15F, V25A, S34N, R39Q counted along it
Method: The interaction between S1R and BiP provides a reliable assay to identify S1R ligands by monitoring the dynamics of the S1R-BiP complex. In this assay, the known S1R agonist PRE-084 and antagonist NE-100 were used as controls (Figure 3).
The ability of the compounds to promote dissociation of the S1R–BiP complex was assessed by Amylgen (Montferrier-sur-Lez, France) as described in [22, 23]. CHO cells were treated with the test compounds for 30 min at 37 °C, followed by crosslinking with dithiobis(succinimidyl propionate) (DSP; Thermo Scientific, Waltham, MA, USA). Cells were lysed after 15 min on ice, and the lysates were centrifuged. Supernatants were incubated overnight at 4 °C with an anti-S1R antibody (Abcam, Cambridge, UK), and then with Protein A-Sepharose (Invitrogen). After the first centrifugation, pellets were resuspended in radioimmunoprecipitation assay (RIPA) buffer, centrifuged again, and resuspended in 2× sample buffer/bMCE buffer. Following a third centrifugation, the supernatants were analyzed for BiP immunoreactivity using an ELISA kit (SEC343Mu, USCNK Life Sciences, Wuhan, China).
Figure 3 In vitro evaluation of agonist activity of compounds 2, 3, and 6: The effects of compounds 2, 3, and 6 at 1 and 10 µM on the S1R-BiP association after 30 min of incubation were analyzed by co-immunoprecipitation using an anti-S1R antibody (red). BiP levels were quantified by ELISA. PRE-084 (white) and NE-100 (black) served as the reference agonist and antagonist, respectively (10 µM). Agonist activity was confirmed by its blockade with NE-100 (black hatching). […] Data represent the mean ± SEM from n = 6 per condition. Statistical significance was assessed using Dunnett’s test: *** p < 0.0001, * p < 0.05 vs. untreated control; ### p < 0.0001, # p < 0.05 for NE-100 blockade.

hERG channel = target: T3, hERG channel (Homo sapiens, UniProt Q12809); assay: hERG automated whole-cell patch-clamp in hERG CHO-K1 cells; type: cell-based; conditions: for hERG inhibition IC50 / IC50: tail current, hERG CHO-K1 cells, 0.1 to 10 µM, n = 2; for IC50: read-out: hERG inhibition IC50
T3 construct: host or cells: CHO-K1
T3 sequence (Q12809 whole entry): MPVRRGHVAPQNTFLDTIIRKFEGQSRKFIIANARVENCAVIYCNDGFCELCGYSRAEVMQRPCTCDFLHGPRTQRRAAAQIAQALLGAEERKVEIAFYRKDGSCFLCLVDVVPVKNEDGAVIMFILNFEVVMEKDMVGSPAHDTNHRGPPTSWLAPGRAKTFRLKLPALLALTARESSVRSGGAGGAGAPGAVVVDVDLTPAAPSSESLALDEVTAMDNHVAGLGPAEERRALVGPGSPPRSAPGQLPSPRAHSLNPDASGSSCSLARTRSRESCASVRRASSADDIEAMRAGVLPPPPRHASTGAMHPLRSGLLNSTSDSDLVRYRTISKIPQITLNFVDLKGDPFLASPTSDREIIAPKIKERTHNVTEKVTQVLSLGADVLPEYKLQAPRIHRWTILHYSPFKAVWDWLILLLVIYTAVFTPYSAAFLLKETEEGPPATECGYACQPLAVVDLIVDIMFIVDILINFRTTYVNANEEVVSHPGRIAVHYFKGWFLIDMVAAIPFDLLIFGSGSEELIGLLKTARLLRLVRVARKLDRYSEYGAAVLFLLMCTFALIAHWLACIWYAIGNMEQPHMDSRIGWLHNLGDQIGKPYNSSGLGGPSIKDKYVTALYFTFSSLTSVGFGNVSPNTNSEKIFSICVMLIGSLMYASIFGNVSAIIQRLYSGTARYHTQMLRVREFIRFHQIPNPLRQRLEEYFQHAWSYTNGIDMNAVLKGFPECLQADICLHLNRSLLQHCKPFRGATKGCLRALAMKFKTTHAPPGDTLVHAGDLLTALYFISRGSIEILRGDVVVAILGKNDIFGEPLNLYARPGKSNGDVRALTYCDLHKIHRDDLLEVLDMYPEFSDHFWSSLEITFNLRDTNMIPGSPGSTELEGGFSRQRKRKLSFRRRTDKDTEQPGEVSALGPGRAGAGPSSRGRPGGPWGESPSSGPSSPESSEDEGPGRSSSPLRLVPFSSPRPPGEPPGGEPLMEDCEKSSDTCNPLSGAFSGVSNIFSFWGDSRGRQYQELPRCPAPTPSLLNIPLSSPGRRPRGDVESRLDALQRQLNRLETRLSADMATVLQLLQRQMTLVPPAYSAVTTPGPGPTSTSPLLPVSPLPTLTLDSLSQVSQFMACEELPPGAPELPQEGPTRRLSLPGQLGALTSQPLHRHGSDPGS
Method: Cardiac toxicity is a leading cause of drug development failure. Early safety profiling includes evaluation of the potassium voltage-gated channel subfamily H member 2 (KCNH2 or hERG) channel, the only in vitro assay mandated by regulatory agencies to predict proarrhythmic risk. […] Importantly, an IC50 (hERG)/Ki (σ1) ratio exceeding 100 is advised for cardiac safety; all compounds met this criterion.
Cardiotoxicity analysis was performed by Eurofins Cerep (Poitiers, France) as described in [41]. Rapidly, hERG CHO-K1 cells were used to perform automated whole-cell patch-clamp. Compounds were evaluated in duplicate from 0.1 to 10 µM. The degree of inhibition (%) was determined by measuring the tail current amplitude, which was induced by a one-second test pulse to −40 mV after a two-second pulse to +20 mV, before and after drug incubation for 5 min at room temperature. After normalization, activities were expressed as the % inhibition of tail current. […] The concentration–response relationship of each compound was constructed from the percentage reductions in current amplitude by sequential concentrations.

CN(CCC(=O)NCc1cccc(Cl)c1)Cc1ccccc1 [Compound 2, 3-(Benzylmethylamino)-N-(3-chlorobenzyl)propanamide]
Ki (S1R; [3H](+)-pentazocine, Jurkat cell membranes, mean of 2–3 independent experiments): 0.6 nM
IC50 (S1R; Jurkat cell membranes): 1.2 nM
Ki (S2R)/ Ki (S1R) (S1R): 317
Dissociation of the S1R-BiP complex (in words) (S1R-BiP complex): significant, dose-dependent dissociation
Dissociation of S1R-BiP complex in the presence of NE-100 (in words) (S1R-BiP complex; co-treatment with NE-100 (10 µM)): completely inhibited
hERG inhibition IC50 (hERG channel): micromolar range
IC50 (hERG channel): 6800 nM

CN(CCC(=O)NCc1ccc(C#N)cc1)Cc1ccccc1 [Compound 6, 3-(Benzylmethylamino)-N-(4-cyanobenzyl)propanamide]
IC50 (S1R; Jurkat cell membranes): 11 nM
Ki (S2R)/ Ki (S1R) (S1R): 331
Dissociation of the S1R-BiP complex (in words) (S1R-BiP complex): slight and less significant reduction
IC50 (hERG)/Ki (σ1) (hERG channel; ratio): 143
hERG inhibition IC50 (hERG channel): micromolar range
IC50 (hERG channel): 800 nM
